Patent publication US20170349860A1, “ENZYME STABILIZERS” (Henkel AG & Co. KGaA, priority 2014, published 2017)

Test system: protease
Assay: Storage stability of protease in detergent formulation: residual proteolytic activity by AAPF-pNA assay
Assay type: biochemical
Conditions: 1% protease, 1% (w/w) candidate compound in detergent formulation; stored 8 weeks at 30° C.; AAPF-pNA substrate, 25° C., pH 8.6, 410 nm
Method: The storage stability of protease-containing detergents and cleaning agents was tested for use as enzyme stabilizers in the presence of candidate compounds. For this purpose, the candidate compounds were formulated in the presence of up to 1% (w/w) 1,2-propanediol in a detergent or cleaning agent formulation (see Table 2). The protease (1% PUR) was then added to the formulation, and the formulation stored for 8 weeks at 30° C.
In parallel batches, the proteolytic activity of 1% protease was determined in 4% PG (1,2-propanediol), 85% matrix (see Table 1), then, each following incubation with 1% of the candidate compound (specified in w/w; QS 100% with water) determined in half of the batches in the formulation as indicated in Table 1 by the release of the chromophore para-nitroaniline from the succinyl-alanine-alanine-proline-phenylalanine para-nitroanilide substrate (AAPF-pNA; Bachem L-1400). The release of the pNA caused an increase in the absorbance at 410 nm, the progress over time of which is a measure of enzymatic activity. […]
For evaluation, the initial values for the proteolytic activity of the agent in question were compared to the values determined after storage. […] The stabilizing effect of each tested compound is thus measured as a relative percentage increase in the residual protease activity.

With `O=C(O)CCCCCNc1nc(NCCCCCC(=O)O)nc(NCCCCCC(=O)O)n1` [2,4,6-Tri-(6-aminocaproic acid)-1,3,5-triazine] the “Relative residual activity after incubation with KV” value was 136%.
